The results in this text go back to US5663298A, “UCK14 compounds” (Kyowa Hakko Kogyo Co., Ltd., priority 1995, dated 1997).

pIC50: −log10 of the molar value.

Series [1] has as its system human epidermoid carcinoma A431 cells. The experiment in a line: Growth inhibition against human epidermoid carcinoma A431 cells (MTT). It is filed as cell-based. Conditions: 72 hours culture, read-out: IC50 (50% growth inhibitory concentration) A431. The source says:
(§1) Growth inhibition against human epidermoid carcinoma A431 cells and human pancreatic carcinoma PSN-1 cells
(§2) Human epidermoid carcinoma A431 cells (ATCC CRL 1555) were suspended in Dulbecco's modified Eagle's medium (Nissui Pharmaceutical Co., Ltd.) supplemented with 10% fetal bovine serum (Filtron), and human pancreatic carcinoma PSN-1 cells [Biochem. Biophys. Res. Commun. 140, 167 (1986)] were suspended in RPMI-1640 medium (Gibco BRL) supplemented with 5% fetal bovine serum (Filtron). Each cell suspension was put into wells of a 96-well microtiter plate (#167008, Nunc) in an amount of 3×10^3 cells/well, followed by preincubation in a 5% CO2 -incubator at 37° C. for 24 hours. Then, 5mM solutions of UCK14A1, UCK14A2 and UCK14C were diluted stepwise and the resulting solutions were respectively added to the wells in an amount of 50 μl/well (highest final concentration: 1 mM). The cells were cultured in the 5% CO2 -incubator at 37° C. for 72 hours. Five hours before the end of culturing, 50 μl of a solution of MTT [3-(4,5-dimethylthiazo-2-yl)-2,5-diphenyltetrazolium bromide (Sigma Chemical Co., Ltd.)] in the medium (final concentration: 1 mg/ml) was added to each well. After the completion of culturing, DMSO was added to the wells in an amount of 150 μl/well, followed by vigorous stirring with a plate mixer to completely dissolve crystals of MTT-formazan. […]

In series [2] the test system is human pancreatic carcinoma PSN-1 cells. The experiment in a line: Growth inhibition against human pancreatic carcinoma PSN-1 cells (MTT). It is filed as cell-based. Particulars: 72 hours culture, read-out: IC50 (50% growth inhibitory concentration) PSN-1.
Excerpt: as §1, §2

The nature of series [3]: Solubility (physicochemical properties). Particulars: qualitative, in various solvents. From the text:
The physicochemical properties of UCK14 compounds are shown below.

In the case of `CCC(C)C1C(=O)OC1C(=O)NC1CC1CC(NC(=O)C(C)N)C(=O)O` (stereo not drawn) [UCK14A1], the pIC50 in series [1] is 4.60; in series [2], 4.79. The Solubility entry in series [3] was “Soluble in water, methanol and dimethylsulfoxide (DMSO); insoluble in hexane, chloroform and ethyl acetate”.
